ChEMBL document CHEMBL1201862, “PubChem BioAssay data set” (2004)
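Cultured in 96-well plates, cells were exposed to test compound for 48 hours across five concentrations. GI50 is the concentration that inhibits growth by half.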 Active and inactive are the calls of the source. No stated cut-off is given here; in the data, active = GI50 up to about 1.1 µM and inactive = higher.

How the values were obtained:
Experiment in all cases: inhibition of tumour cell growth, NCI panel, 48 h
SN12C = test system: SN12C
OVCAR-8 = test system: OVCAR-8
MDA-N = test system: MDA-N
NCI-H460 = test system: NCI-H460
EKVX = test system: EKVX
HL-60 = test system: HL-60
ACHN = test system: ACHN
CAKI-1 = test system: CAKI-1
SNB-75 = test system: SNB-75
OVCAR-5 = test system: OVCAR-5
SF-268 = test system: SF-268
SW-620 = test system: SW-620
SR = test system: SR
MDA-MB-231 = test system: MDA-MB-231
COLO 205 = test system: COLO 205
K562 = test system: K562
OVCAR-3 = test system: OVCAR-3
UACC-257 = test system: UACC-257
NCI-H23 = test system: NCI-H23
DU-145 = test system: DU-145

Measured: GI50

C=C(C)C1Cc2c(cc3c(c2O)c(=O)c2ccccc2n3C)O1 (stereo not given)
inactive: SN12C 2.27 µM | OVCAR-8 1.84 µM | MDA-N 3.2 µM | NCI-H460 3.1 µM | EKVX 17.5 µM | HL-60 2.77 µM | ACHN 5.14 µM | CAKI-1 2.99 µM | SNB-75 4.5 µM | OVCAR-5 13.3 µM | SF-268 2.48 µM | SW-620 1.81 µM | SR 1.16 µM | MDA-MB-231 2.2 µM | COLO 205 5.75 µM | K562 1.79 µM | OVCAR-3 12.6 µM | UACC-257 15.8 µM | NCI-H23 2.36 µM | DU-145 > 10 µM

O=C(NCCCCCCCCCCCCNC(=O)Nc1cccc2ccccc12)Nc1cccc2ccccc12
inactive: SN12C 17.6 µM | OVCAR-8 22.9 µM | MDA-N 17.4 µM | NCI-H460 15.5 µM | EKVX 19.1 µM | HL-60 18.2 µM | ACHN 14 µM | CAKI-1 17.9 µM | SNB-75 12.9 µM | OVCAR-5 25.2 µM | SF-268 14.3 µM | SW-620 17.4 µM | SR 16.7 µM | MDA-MB-231 20.7 µM | COLO 205 20.6 µM | K562 20.2 µM | OVCAR-3 16.7 µM | UACC-257 > 10 µM | NCI-H23 16.8 µM | DU-145 24.3 µM

Cc1c2ccccc2cc2nc3ccccc3n12
inactive: SN12C > 10 µM | OVCAR-8 > 10 µM | MDA-N > 10 µM | NCI-H460 > 10 µM | EKVX > 10 µM | HL-60 > 10 µM | ACHN > 10 µM | CAKI-1 > 10 µM | SNB-75 > 10 µM | OVCAR-5 > 10 µM | SF-268 > 10 µM | SW-620 > 10 µM | SR > 10 µM | MDA-MB-231 > 10 µM | COLO 205 > 10 µM | K562 > 10 µM | OVCAR-3 > 10 µM | UACC-257 > 10 µM | NCI-H23 > 10 µM | DU-145 > 10 µM

O=C1Nc2c(Cl)cc(Cl)cc2/C1=N/Nc1ccccc1[N+](=O)[O-]
inactive: SN12C 85.9 µM | OVCAR-8 30.3 µM | MDA-N > 100 µM | NCI-H460 54.5 µM | EKVX 5.7 µM | HL-60 16.6 µM | ACHN 11.6 µM | CAKI-1 39.4 µM | SNB-75 4.28 µM | OVCAR-5 > 100 µM | SF-268 25.1 µM | SW-620 > 100 µM | SR 5.45 µM | MDA-MB-231 18.3 µM | COLO 205 92.5 µM | K562 38.6 µM | OVCAR-3 50.7 µM | UACC-257 > 100 µM | NCI-H23 26.1 µM | DU-145 > 100 µM

CCCCC/C=C\C=C1\C(=O)C=C[C@@H]1C/C=C\CCCC(=O)O
inactive: SN12C 2 µM | OVCAR-8 1.49 µM | MDA-N 1.96 µM | NCI-H460 6.04 µM | EKVX 1.9 µM | HL-60 2.41 µM | ACHN 2.72 µM | CAKI-1 3.37 µM | SNB-75 9.66 µM | OVCAR-5 3.41 µM | SF-268 4.37 µM | SW-620 2.8 µM | SR 1.96 µM | MDA-MB-231 9.2 µM | COLO 205 2.96 µM | K562 1.62 µM | OVCAR-3 2.9 µM | UACC-257 7.29 µM | NCI-H23 7.16 µM | DU-145 6.92 µM

COc1ccc2c(c1)CCC(CN1CCN(CCOC(c3ccc(F)cc3)c3ccc(F)cc3)CC1)=C2
inactive: SN12C 11.1 µM | OVCAR-8 18.8 µM | MDA-N 11.8 µM | NCI-H460 12.4 µM | EKVX 6.07 µM | HL-60 5.53 µM | ACHN 13.3 µM | CAKI-1 18.9 µM | SNB-75 46.5 µM | OVCAR-5 23.1 µM | SF-268 31.6 µM | SW-620 22.9 µM | SR 3.71 µM | MDA-MB-231 14.1 µM | COLO 205 2.14 µM | K562 4.47 µM | OVCAR-3 16.9 µM | UACC-257 9.18 µM | NCI-H23 14.8 µM | DU-145 19 µM
